Data from patent US10442807B2, “Aryl substituted bicyclic compounds as herbicides” (FMC Corporation, priority 2015, dated 2019).

Tests used:
Format in all cases: in vivo
[1] = test system: kochia (Kochia scoparia); experiment: Test A postemergence application, visual injury rating; settings: approx. 10 d, 0 = no effect, 100 = complete control
Outline: (§1)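 In a loam soil and sand blend, either planted seeds got a preemergence directed soil spray or plants at the one- to two-leaf stage (2 to 10 cm tall) were sprayed, using test chemicals in a non-phytotoxic solvent mixture with surfactant. After about 10 d in a greenhouse, injury was visually rated against untreated controls on a 0-100 scale.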

[2] = test system: corn (Zea mays); experiment: as above; settings: approx. 10 d, 0 = no effect, 100 = complete control
Outline: as §1

[3] = test system: barnyardgrass (Echinochloa crus-galli); experiment: as above; settings: approx. 10 d, 0 = no effect, 100 = complete control
Outline: as §1

[4] = test system: ryegrass, Italian (Italian ryegrass, Lolium multiflorum); experiment: as above; settings: approx. 10 d, 0 = no effect, 100 = complete control
Outline: as §1

[5] = test system: ragweed (common ragweed, Ambrosia elation); experiment: as above; settings: approx. 10 d, 0 = no effect, 100 = complete control
Outline: as §1

[6] = test system: pigweed (Amaranthus retroflexus); experiment: as above; settings: approx. 10 d, 0 = no effect, 100 = complete control
Outline: as §1

[7] = test system: blackgrass (Alopecurus myosuroides); experiment: as above; settings: approx. 10 d, 0 = no effect, 100 = complete control
Outline: as §1

[8] = test system: galium (catchweed bedstraw, Galium aparine); experiment: as above; settings: approx. 10 d, 0 = no effect, 100 = complete control
Outline: as §1

[9] = test system: foxtail, giant (giant foxtail, Setaria faberii); experiment: as above; settings: approx. 10 d, 0 = no effect, 100 = complete control
Outline: as §1

[10] = test system: wheat (Triticum aestivum); experiment: as above; settings: approx. 10 d, 0 = no effect, 100 = complete control
Outline: as §1

[11] = test system: kochia (Kochia scoparia); experiment: Test A preemergence, directed soil spray, visual injury rating; settings: approx. 10 d, 0 = no effect, 100 = complete control
Outline: as §1

[12] = test system: barnyardgrass (Echinochloa crus-galli); experiment: as above; settings: approx. 10 d, 0 = no effect, 100 = complete control
Outline: as §1

[13] = test system: ryegrass, Italian (Italian ryegrass, Lolium multiflorum); experiment: as above; settings: approx. 10 d, 0 = no effect, 100 = complete control
Outline: as §1

[14] = test system: ragweed (common ragweed, Ambrosia elation); experiment: as above; settings: approx. 10 d, 0 = no effect, 100 = complete control
Outline: as §1

[15] = test system: pigweed (Amaranthus retroflexus); experiment: as above; settings: approx. 10 d, 0 = no effect, 100 = complete control
Outline: as §1

[16] = test system: foxtail, giant (giant foxtail, Setaria faberii); experiment: as above; settings: approx. 10 d, 0 = no effect, 100 = complete control
Outline: as §1

[17] = test system: rice (Oryza sativa); experiment: Test B flooded paddy test, visual plant response rating; settings: 250 g ai/ha; applied to paddy water at 2-leaf stage; rated after 13 to 15 days; scale 0 to 100, 0 is no effect, 100 is complete control
Outline: (§2)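 Ratings compare treated with control plants by eye, scored 0 (no effect) to 100 (complete control). Application is into paddy water 3 cm deep over soil, maintained at that level for 13–15 days under greenhouse conditions.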

[18] = test system: barnyardgrass (Echinochloa crus-galli); experiment: as above; settings: 250 g ai/ha; applied to paddy water at 2-leaf stage; rated after 13 to 15 days; scale 0 to 100, 0 is no effect, 100 is complete control
Outline: as §2

[19] = test system: ducksalad (Heteranthera limosa); experiment: as above; settings: 250 g ai/ha; applied to paddy water at 2-leaf stage; rated after 13 to 15 days; scale 0 to 100, 0 is no effect, 100 is complete control
Outline: as §2

[20] = test system: sedge, umbrella (small-flower umbrella sedge, Cyperus difformis); experiment: as above; settings: 250 g ai/ha; applied to paddy water at 2-leaf stage; rated after 13 to 15 days; scale 0 to 100, 0 is no effect, 100 is complete control
Outline: as §2

Structure (SMILES) | Kochia plant response rating (0 to 100 scale) ([1]; 125 g ai/ha) | Kochia plant response rating (0 to 100 scale) ([1]; 500 g ai/ha) | Corn plant response rating (0 to 100 scale) ([2]; 125 g ai/ha) | Corn plant response rating (0 to 100 scale) ([2]; 500 g ai/ha) | Barnyardgrass plant response rating (0 to 100 scale) ([3]; 125 g ai/ha) | Barnyardgrass plant response rating (0 to 100 scale) ([3]; 500 g ai/ha) | Ryegrass, Italian plant response rating (0 to 100 scale) ([4]; 125 g ai/ha) | Ryegrass, Italian plant response rating (0 to 100 scale) ([4]; 500 g ai/ha) | Ragweed plant response rating (0 to 100 scale) ([5]; 125 g ai/ha) | Ragweed plant response rating (0 to 100 scale) ([5]; 500 g ai/ha) | Pigweed plant response rating (0 to 100 scale) ([6]; 125 g ai/ha) | Pigweed plant response rating (0 to 100 scale) ([6]; 500 g ai/ha) | Blackgrass plant response rating (0 to 100 scale) ([7]; 125 g ai/ha) | Blackgrass plant response rating (0 to 100 scale) ([7]; 500 g ai/ha) | Galium plant response rating (0 to 100 scale) ([8]; 125 g ai/ha) | Galium plant response rating (0 to 100 scale) ([8]; 500 g ai/ha) | Foxtail, Giant plant response rating (0 to 100 scale) ([9]; 125 g ai/ha) | Foxtail, Giant plant response rating (0 to 100 scale) ([9]; 500 g ai/ha) | Wheat plant response rating (0 to 100 scale) ([10]; 125 g ai/ha) | Wheat plant response rating (0 to 100 scale) ([10]; 500 g ai/ha) | other results
Cc1ccc(C2Cn3cnnc3C2C(=O)Nc2ccccc2F)cc1 (stereo not drawn) [Compound 13] | 0 | 30 | 0 | 20 | 50 | 90 | 0 | 0 | 0 | 30 | 0 | 0 | 20 | 40 | 40 | 40 | 60 | 80 | 0 | 0 | Kochia plant response rating (0 to 100 scale) ([11]; 125 g ai/ha): 70; Kochia plant response rating (0 to 100 scale) ([11]; 500 g ai/ha): 70; Barnyardgrass plant response rating (0 to 100 scale) ([12]; 125 g ai/ha): 60; Barnyardgrass plant response rating (0 to 100 scale) ([12]; 500 g ai/ha): 70; Ryegrass, Italian plant response rating (0 to 100 scale) ([13]; 125 g ai/ha): 0; Ryegrass, Italian plant response rating (0 to 100 scale) ([13]; 500 g ai/ha): 0; Ragweed plant response rating (0 to 100 scale) ([14]; 125 g ai/ha): 0; Ragweed plant response rating (0 to 100 scale) ([14]; 500 g ai/ha): 80; Pigweed plant response rating (0 to 100 scale) ([15]; 125 g ai/ha): 0; Pigweed plant response rating (0 to 100 scale) ([15]; 500 g ai/ha): 0; Foxtail, Giant plant response rating (0 to 100 scale) ([16]; 125 g ai/ha): 70; Foxtail, Giant plant response rating (0 to 100 scale) ([16]; 500 g ai/ha): 90; Plant response rating, Flood, Rice [17]: 20; Plant response rating, Flood, Barnyardgrass [18]: 40; Plant response rating, Flood, Ducksalad [19]: 45; Plant response rating, Flood, Sedge, Umbrella [20]: 0
CSc1ccccc1NC(=O)C1c2nnc(C)n2CC1c1ccc(C)c(C)c1 (stereo not drawn) [Compound 14] | 0 | 0 | 0 | 0 | 0 | 20 | 0 | 0 | 0 | 0 | 0 | 0 | 0 | 20 | 0 | 0 | 0 | 20 | 0 | 0 | Kochia plant response rating (0 to 100 scale) ([11]; 125 g ai/ha): 0; Kochia plant response rating (0 to 100 scale) ([11]; 500 g ai/ha): 0; Barnyardgrass plant response rating (0 to 100 scale) ([12]; 125 g ai/ha): 0; Barnyardgrass plant response rating (0 to 100 scale) ([12]; 500 g ai/ha): 30; Ryegrass, Italian plant response rating (0 to 100 scale) ([13]; 125 g ai/ha): 0; Ryegrass, Italian plant response rating (0 to 100 scale) ([13]; 500 g ai/ha): 0; Ragweed plant response rating (0 to 100 scale) ([14]; 125 g ai/ha): 0; Ragweed plant response rating (0 to 100 scale) ([14]; 500 g ai/ha): 0; Pigweed plant response rating (0 to 100 scale) ([15]; 125 g ai/ha): 0; Pigweed plant response rating (0 to 100 scale) ([15]; 500 g ai/ha): 0; Foxtail, Giant plant response rating (0 to 100 scale) ([16]; 125 g ai/ha): 0; Foxtail, Giant plant response rating (0 to 100 scale) ([16]; 500 g ai/ha): 60; Plant response rating, Flood, Rice [17]: 0; Plant response rating, Flood, Barnyardgrass [18]: 20; Plant response rating, Flood, Ducksalad [19]: 60; Plant response rating, Flood, Sedge, Umbrella [20]: 0
CCc1ccc(C2Cn3c(C)nnc3C2C(=O)Nc2ccccc2SC)cc1 (stereo not drawn) [Compound 15] | 0 | 0 | 0 | 0 | 0 | 0 | 0 | 0 | 0 | 0 | 0 | 0 | 0 | 0 | 0 | 0 | 0 | 0 | 0 | 0 | Kochia plant response rating (0 to 100 scale) ([11]; 125 g ai/ha): 0; Kochia plant response rating (0 to 100 scale) ([11]; 500 g ai/ha): 0; Barnyardgrass plant response rating (0 to 100 scale) ([12]; 125 g ai/ha): 0; Barnyardgrass plant response rating (0 to 100 scale) ([12]; 500 g ai/ha): 0; Ryegrass, Italian plant response rating (0 to 100 scale) ([13]; 125 g ai/ha): 0; Ryegrass, Italian plant response rating (0 to 100 scale) ([13]; 500 g ai/ha): 0; Ragweed plant response rating (0 to 100 scale) ([14]; 125 g ai/ha): 0; Ragweed plant response rating (0 to 100 scale) ([14]; 500 g ai/ha): 0; Pigweed plant response rating (0 to 100 scale) ([15]; 125 g ai/ha): 0; Pigweed plant response rating (0 to 100 scale) ([15]; 500 g ai/ha): 0; Foxtail, Giant plant response rating (0 to 100 scale) ([16]; 125 g ai/ha): 0; Foxtail, Giant plant response rating (0 to 100 scale) ([16]; 500 g ai/ha): 0; Plant response rating, Flood, Rice [17]: 20; Plant response rating, Flood, Barnyardgrass [18]: 0; Plant response rating, Flood, Ducksalad [19]: 50; Plant response rating, Flood, Sedge, Umbrella [20]: 0
Cc1ccc(C2Cn3cnnc3C2C(=O)Nc2cccc(F)c2F)cc1C (stereo not drawn) [Compound 16] | 30 | 30 | 0 | 70 | 60 | 80 | 0 | 50 | 0 | 50 | 0 | 0 | 0 | 60 | 40 | 50 | 60 | 80 | 0 | 50 | Kochia plant response rating (0 to 100 scale) ([11]; 125 g ai/ha): 70; Kochia plant response rating (0 to 100 scale) ([11]; 500 g ai/ha): 80; Barnyardgrass plant response rating (0 to 100 scale) ([12]; 125 g ai/ha): 70; Barnyardgrass plant response rating (0 to 100 scale) ([12]; 500 g ai/ha): 90; Ryegrass, Italian plant response rating (0 to 100 scale) ([13]; 125 g ai/ha): 0; Ryegrass, Italian plant response rating (0 to 100 scale) ([13]; 500 g ai/ha): 60; Ragweed plant response rating (0 to 100 scale) ([14]; 125 g ai/ha): 0; Ragweed plant response rating (0 to 100 scale) ([14]; 500 g ai/ha): 50; Pigweed plant response rating (0 to 100 scale) ([15]; 125 g ai/ha): 0; Pigweed plant response rating (0 to 100 scale) ([15]; 500 g ai/ha): 0; Foxtail, Giant plant response rating (0 to 100 scale) ([16]; 125 g ai/ha): 90; Foxtail, Giant plant response rating (0 to 100 scale) ([16]; 500 g ai/ha): 90; Plant response rating, Flood, Rice [17]: 15; Plant response rating, Flood, Barnyardgrass [18]: 50; Plant response rating, Flood, Ducksalad [19]: 75; Plant response rating, Flood, Sedge, Umbrella [20]: 0
